Source: patent US8778995B2, “Use of hydroxyoleic acid and related compounds in the manufacture of drugs” (Universitat de les Illies Balears, priority 2001, dated 2014)

Experiments:
G-proteins = assay: Binding of [35S]GTPγS to membranes of NIH 3T3 cells transfected with the rat adrenoceptor α2A/D (activity of G-proteins); format: biochemical
Excerpt: Hydroxyoleic acid and related compounds are capable of modulating the activity of G-proteins, measured by the binding of [^35S] GTPγS (FIG. 5).
The analogs of 2-hydroxyoleic produce an effect similar to that of 2-hydroxyoleic acid.

[1] = system: cerebral tumor metastases, formed from a lung adenocarcinoma; assay: Brain metastases of lung adenocarcinoma in a patient; format: in vivo, human; conditions: previous chemotherapy and radiotherapy without effect
Excerpt: The antitumor efficacy of 2-hydroxyoleic acid and its […] is shown in FIG. 8, in which we can see the disappearance of some cerebral tumor metastases, formed from a lung adenocarcinoma, after treatment with 2-hydroxyoleic acid.
Regulation of the Activity of G-Proteins Controls Blood Pressure.
The image on the left (8a) corresponds to the tumors before treatment and those on the right (8b, 8c and 8d) correspond to the tumors after treatment with 2-hydroxyoleic on various dates.

heart rate = assay: Heart rate during hypotensive treatment; format: in vivo; conditions: FIGS. 9a, 9b and 10
Method: The hypotensive effect produced by 2-hydroxyoleic acid and its analogs is that it induces a reduction in blood pressure of an acute form (which is evident from 2 hours of treatment) and chronic (which is maintained for days and weeks while the treatment is maintained). Aminoleic acid, for example, reduces blood pressure by 15 mmHg in chronic treatments lasting a week. These fatty acids regulate communication between receptor, G-protein and effector. The result is a modulation of the signals of cyclic AMP, phospholipase C and nitric oxide, which gives rise to a reduction in blood pressure. This effect is also connected with regulation of the membrane structure. […] An additional advantage of these compounds is that they control other cardiovascular risk factors: the serum lipid/lipoprotein profile and body weight (see below).

[2] = system: systolic arterial pressure; assay: Blood pressure in humans; format: in vivo; conditions: 30 mg/kg, FIG. 9b
Excerpt: The days prior to treatment are shown with negative values. *P<0.05, **P<0.01.

Gαi2 protein = assay: Cellular localization of fluorescein-labeled Gαi2 protein, confocal microscopy; format: cell-based; conditions: primary astrocytes of rat brain, FIG. 2
Excerpt: (§1) This is because these molecules have an influence on the interaction of G-proteins with membranes and therefore on their cellular localization, as is shown in the photographs from confocal microscopy (FIG. 2). The effect of hydroxyoleic acid and its analogs on the localization and activity of G-proteins is not due to a direct interaction on them.
(§2) In this way, inhibition of cell proliferation is achieved, as was confirmed by the appreciable and significant increases in the levels of the protein p21 and the decreases in the cell cycle proteins cdk2 and cyclins B and D3 (FIGS. 3A and B). Moreover, it has been observed that in cells in culture, 2-hydroxyoleic acid and its analogs induce significant increases in protein kinase C (increase of between 40% and 120%).
In control cells, the labeling indicates the presence of this protein throughout the cell, especially in the nucleus (arrow).

[3] = Temperature of transition from lamellar to hexagonal structure (HII) of DEPE membranes, X-ray diffraction/scattering; conditions: for TH, lamellar-hexagonal transition of DEPE: phospholipid:analog 20:1 mol:mol, Table 2, control 61
Method: The control value (in the absence of 2-hydroxyoleic) is 63° C. […] This important modification of the cell membrane has important consequences for molecular and cellular function. All the analogs of 2-hydroxyoleic tested that have therapeutic activity also induce effects on the membrane structure (Table 2).
Using this technique, we established that the structure of the membrane is altered by 2-hydroxyoleic acid and its analogs. The lowering of the temperature of transition from lamellar to hexagonal structure indicates an important effect on rearrangement of the lipid molecules in the membrane. This regulation of rearrangement forms the basis of the effect exerted by 2-hydroxyoleic acid and its analogs.

[4] = system: Jurkat cells of human leukemia; assay: Proliferation (cell density) of Jurkat tumor cells in culture; format: cell-based; conditions: FIG. 4B
Excerpt: (§3) The presence of 2-hydroxyoleic acid and/or its analogs in the cells induces activation of the signal pathway associated with p53, which induces the start of apoptosis or stopping of the cell cycle in various types of tumor cells. With the aim of carrying out the first objective of the present invention, in vitro and in vivo models were used.

purified G-proteins = assay: Activity of purified G-proteins in the absence of membrane; format: biochemical
Excerpt: as §1
FIG. 6: Hydroxyoleic acid and its analogs had no effect on pure G-proteins (in the absence of membrane).

[5] = system: human lung cancer cells A549; assay: Proliferation (cell density) of A549 tumor cells in culture; format: cell-based; conditions: FIG. 4A
Excerpt: as §3

[6] = Body weight of rats in chronic treatment; format: in vivo; conditions: seventh day, Sprague-Dowley rat aged 2-3 months
Excerpt: Rats treated with these molecules lost body weight during chronic treatments (from 5 to 17 days). In these experiments, rats treated with 2-hydroxyoleic acid or its analogs, in particular aminoleic acid, had free access to food and water, in the same way as the control group of treated rats (FIG. 11). In these conditions there was a progressive decrease in the rats' body weight starting from the first day of treatment, up to 17 grams on the seventh day of treatment (5% of the normal body weight of a Sprague-Dowley rat aged 2-3 months). […] Similar experiments carried out on adult mice, for periods of up to 28 days with 2-hydroxyoleic acid, show reductions in body weight from 15% to 25%, relative to control mice (treated with vehicle).
The animals (Sprague-Dowley rats) had free access to food and water at any time.

[7] = system: systolic arterial pressure; assay: Blood pressure in Sprague-Dowley rats; format: in vivo; conditions: for systolic arterial pressure after acute treatment, in words: Sprague-Dowley rats, FIG. 10
Method: These reductions were of an acute form (at 2 hours of treatment, 19±6 mmHg, P<0.01, n=6) and of a chronic form (1 week, 26±7 mmHg, P<0.001, n=6).
Lower doses of this molecule (1-10 mg/kg) produced similar effects, but less marked. *P<0.01.

[8] = system: human leukemia cells (Jurkat); assay: Degradation of poly-ADP ribose polymerase (PARP) in Jurkat cells; format: cell-based; conditions: Jurkat cells, 10, 100 and 1000 μM, FIG. 3C
Excerpt: (§4) Similar effects were produced by all the analogs tested that comply with the general structural formula given earlier. […] This antiproliferative effect was also observed using other techniques and other cell types: in rat primary astrocytes, these fatty acids have an antiproliferative effect, which I studied by incorporating tritiated thymidine. Moreover, hydroxyoleic acid and its analogs are able to induce apoptosis or programmed cell death in human cancer cells. […] Using flow cytometry experiments, it was established that in the presence of 2-hydroxyoleic acid the number of live human leukemia cells (Jurkat) was only 10% of those that remained alive with Etoposide, a known antitumor agent.
Protein p21 inhibits the cell cycle, so it is an antiproliferative protein. […] The decrease in levels of this enzyme, or evidence of its degradation, indicate the start of apoptosis or programmed cell death. In these experiments Etoposide was used as the positive control, as this molecule is known to be an inducer of apoptosis and an antitumor agent.

[9] = system: human lung cancer cells A549; assay: Cell cycle proteins (cdk2, cyclin B, cyclin D3, p21) in A549 cells; format: cell-based
Excerpt: as §2, §4
Protein p21 inhibits the cell cycle, so it is an antiproliferative protein. […] The decrease in levels of this enzyme, or evidence of its degradation, indicate the start of apoptosis or programmed cell death. […]

[10] = system: human leukemia cells (Jurkat); assay: Flow cytometry, number of live Jurkat cells; format: cell-based
Excerpt: as §4

Question: With `CCCCCCCC/C=C\CCCCCCC(O)C(=O)O` (stereo not drawn) [2-hydroxyoleic acid, cis-2-hydroxy-9-octadecenoic acid] as the compound, how does the “function of the G-proteins ([35S]GTPγS binding), in words” value (G-proteins; FIG. 5) read?
Answer: Its value is “decrease in function of the G-proteins even greater than the anthracycline daunomycin”.

Question: What about the “effect on brain tumors (metastases) in a patient” value ([1]; FIG. 8) of the same compound?
Answer: The value was “complete disappearance of the cancer”.

Question: What about the “effect on brain tumors (metastases) in a patient” value ([1]; FIG. 8, listed as 2-hydroxyoleic) of the same compound?
Answer: The value was “one of the tumors disappeared more quickly and the other one more slowly”.

Question: And the “effect on heart rate” value (heart rate)?
Answer: The value was “without altering the heart rate”.

Question: What about the “blood pressure in humans, in words” value [2] of the same compound?
Answer: Its value is “significant, large decreases”.

Question: What about the “cellular localization of Gαi2 protein” value (Gαi2 protein) of the same compound?
Answer: The value was “in membrane and cytosol, but not in the nucleus”.

Question: And the “TH, temperature of transition from lamellar to hexagonal structure” value (from here on “TH, temperature of transition”) ([3]; DEPE:2OHOA 10:1 mol:mol)?
Answer: The value was 41 °C.

Question: What about the “TH, temperature of transition” value ([3]; DEPE:2OHOA 20:1 mol:mol) of the same compound?
Answer: The value was 48 °C.

Question: And the “TH, temperature of transition” value ([3]; DEPE:2OHOA 40:1 mol:mol)?
Answer: Its value is 54 °C.

Question: What about the “effect on proliferation of Jurkat cells” value [4] of the same compound?
Answer: The value was “induce stoppage of division and the death of tumor cells”.

Question: And the “influence on the activity of purified G-proteins” value (“influence on the activity” below) (purified G-proteins; FIG. 6, listed as Hydroxyoleic acid)?
Answer: The value was “no effect”.

Question: And the “influence on the activity” value (purified G-proteins; FIG. 6, listed as hydroxyoleic)?
Answer: The value was “did not have an influence”.

Question: And the “effect on proliferation of A549 cells” value [5]?
Answer: Its value is “induce stoppage of division and the death of tumor cells”.

Question: What about the “decrease in body weight as share of normal body weight” value [6] of the same compound?
Answer: The value was 5%.

Question: What about the “systolic arterial pressure after acute treatment, in words” value [7] of the same compound?
Answer: The value was “significant decreases”.

Question: And the “blood pressure at lower doses, in words” value ([7]; acute and chronic treatments from 1 mg/kg to 10 mg/kg)?
Answer: Its value is “significant reductions”.

Question: And the “reduction of blood pressure, chronic” value ([7]; rats, 1 week, 3 daily injections of 30 mg/kg)?
Answer: Its value is 26±7 mmHg.

Question: And the “reduction of blood pressure, acute” value ([7]; rats, at 2 hours of treatment, 30 mg/kg)?
Answer: The value was 19±6 mmHg.

Question: And the “poly-ADP ribose polymerase (PARP) levels” value [8]?
Answer: The value was “degradation”.

Question: What about the “cell cycle proteins cdk2, cyclin B and cyclin D3” value ([9]; FIG. 3A) of the same compound?
Answer: The value was “decrease”.

Question: What about the p21 protein ([9]; incubation for 24 and 48 hours, FIG. 3B) of the same compound?
Answer: Its p21 protein is “large increases”.

Question: And the “number of live Jurkat cells relative to those that remained alive with Etoposide” value [10]?
Answer: The value was 10%.

Question: Which “TH, lamellar-hexagonal transition of DEPE” value [3] does the source give for `CCCCCCCC/C=C\CCCCCCC(N)C(=O)O` (stereo not drawn) [Aminoleic acid, 2-amino-oleic (2-amino-cis-9-octadecenoic)acid] here?
Answer: The value was 49 °C.

Question: What about the “effect on proliferation of Jurkat cells” value [4] of the same compound?
Answer: Its value is “induce stoppage of division and the death of tumor cells”.

Question: And the “effect on proliferation of A549 cells” value [5]?
Answer: Its value is “induce stoppage of division and the death of tumor cells”.

Question: And the “decrease in body weight as share of normal body weight” value [6]?
Answer: Its value is 5%.

Question: And the “reduction of blood pressure, chronic treatments lasting a week” value ([7]; species not printed at the place)?
Answer: Its value is 15 mmHg.

Question: What does the source list for `CCCCCCCC/C=C\CCCCCCC(C)C(=O)O` (stereo not drawn) [Methyloleic acid, 2-methyl-oleic (2-methyl-cis-9-octadecenoic)acid]?
Answer: TH, lamellar-hexagonal transition of DEPE [3]: 50 °C; effect on proliferation of Jurkat cells [4]: induce stoppage of division and the death of tumor cells; effect on proliferation of A549 cells [5]: induce stoppage of division and the death of tumor cells; systolic arterial pressure after acute treatment, in words [7]: significant decreases

Question: Which “TH, lamellar-hexagonal transition of DEPE” value [3] does the source give for `CCCCCCCC/C=C\CCCCCCCCCCCCCC(=O)O` [Nervonic acid, nervonic (cis-15-tetracosenoic)acid] here?
Answer: The value was 55 °C.

Question: And the “effect on proliferation of Jurkat cells” value [4]?
Answer: Its value is “induce stoppage of division and the death of tumor cells”.

Question: What about the “effect on proliferation of A549 cells” value [5] of the same compound?
Answer: Its value is “induce stoppage of division and the death of tumor cells”.

Question: And the “systolic arterial pressure after acute treatment, in words” value [7]?
Answer: Its value is “significant decreases”.

Question: Which results are given for `CCCCCCCC/C=C\CCCCCCCC(=O)O` [Oleic acid, oleic (cis-9-octadecenoic)acid]?
Answer: effect on brain tumors (metastases) in a patient ([1]; FIG. 8): complete disappearance of the cancer; TH, lamellar-hexagonal transition of DEPE [3]: 45 °C; effect on proliferation of Jurkat cells [4]: induce stoppage of division and the death of tumor cells; effect on proliferation of A549 cells [5]: induce stoppage of division and the death of tumor cells; systolic arterial pressure after acute treatment, in words [7]: significant decreases

Question: Which results are given for `CCCCCC/C=C\CCCCCCCCCC(=O)O` [cis-Vaccenic acid, cis-vaccenic (cis-11-octadecenoic)acid]?
Answer: TH, lamellar-hexagonal transition of DEPE [3]: 53 °C; systolic arterial pressure after acute treatment, in words [7]: significant decreases

Question: With `COc1cccc2c1C(=O)c1c(O)c3c(c(O)c1C2=O)C[C@@](O)(C(C)=O)C[C@@H]3O[C@H]1C[C@H](N)[C@H](O)[C@H](C)O1` [daunomycin, reference compound] as the compound, how does the “inhibition in the activity of G-proteins” value (G-proteins; 200 μM, membranes of NIH 3T3 cells) read?
Answer: Its value is 46%.

Question: And the “influence on the activity” value (purified G-proteins; FIG. 6)?
Answer: The value was “did not have an influence”.

Question: What about the “influence on the activity” value (purified G-proteins; FIG. 6, listed as Daunomycin) of the same compound?
Answer: Its value is “behavior similar to the control”.

Question: What does the source list for `CCCCCC/C=C\CCCCCCCC(=O)O` [palmitoleic acid, palmitoleic (cis-9-hexadecenoic)acid]?
Answer: effect on proliferation of Jurkat cells [4]: induce stoppage of division and the death of tumor cells; effect on proliferation of A549 cells [5]: induce stoppage of division and the death of tumor cells; systolic arterial pressure after acute treatment, in words [7]: significant decreases
